For 93 compounds, melting point results are on record in a melting point compilation (Tetko et al.; mined from patent text by program, amines drawn as free bases though some values may be those of a salt).

As a reminder, the melting point is the temperature of the solid-liquid transition. The compound `COc1ccc(OCC(O)CN2CCC3(CC2)CNC(=O)O3)cc1` (stereo not drawn) returned a melting point of 151 to 153 °C.
Compound `CCOC(=O)c1c(NCCCN(C)C)c2ccc(C)nc2n(CC)c1=O` showed a melting point of 75 °C.
Compound `O=C(C1CCCCC1CO)N1CCCC1` (stereo not drawn) yielded a melting point of 115 °C.
As for `COC(=O)C(c1ccccc1Cl)N1CCc2sc(OC(=O)C(C)(C)C)cc2C1` (stereo not drawn), the melting point fell in the range of 118 to 120 °C.
`CN(C)CCCC(C(N)=O)c1ccccc1-c1ccccc1` (stereo not drawn) had a melting point of 108 to 110 °C.
In turn, `NS(=O)(=O)c1ccc(-n2nc(C(F)F)cc2-c2ccc(Cl)cc2)cc1` gave a melting point of 185 to 186 °C.
For `CC(=O)C(CC=Cc1ccccc1Cl)(CCC(=O)O)c1ccccc1` (stereo not drawn), the melting point is 95 to 110 °C.
Compound `CCOC(=O)C(C#N)=Cc1c(Cl)n(Cc2cccc(Cl)c2)c2ccccc12` had a melting point of 130 to 132 °C.
Consider `CC(C)(C)C(O)(Cn1cncn1)C1CCC1` (stereo not drawn), for which the melting point lay in the range of 94 to 99.5 °C.
For `CC#CCOc1ccc(S(=O)(=O)C2(C(=O)O)CCCN(Cc3ccc(Cl)cc3)C2)cc1` (stereo not drawn), the melting point was 115 °C.
Next, `O=S(=O)(NCCc1ccc(Nc2nnn[nH]2)cc1)c1ccc(Cl)cc1`: 148 to 150 °C.
`CC(=O)Nc1nc2c(Oc3cc(-c4ccc(C(F)(F)F)cc4N)ncn3)cccc2s1` yielded a melting point of 160 to 161 °C.
Next, `O=C1C=CC(=O)N1CO`: 96.5 to 97 °C; `N#Cc1c(Cl)c(F)cc(C(=O)Cl)c1Cl`: 73 to 75 °C; `Cc1c(C(=O)c2cccs2)cccc1C(C)C(=O)O` (stereo not drawn): 100 °C.
With `Cc1ccccc1CC(=O)c1cccc(I)c1`, the melting point lay within 115 to 117 °C.
Next, `COc1cc(O)cc2nc(-c3ccc(O)cc3)oc12`: 225 to 228 °C; `CC(=O)NCCCc1ccc(Cl)c2c1CCO2`: 76 to 78 °C.
Compound `CCCCNC(=O)c1ccc(S(=O)(=O)NC(=O)c2ccc(C(=O)NCC(=O)OC)nc2)cc1` yielded a melting point of 215 to 217 °C.
In turn, `CCOC(=O)C1=C(COCC(C)=O)NC(C)=C(C(=O)OC)C1c1cccc(Cl)c1Cl` (stereo not drawn) came in with a melting point of 117 to 119 °C.
As to `CC1(O)c2ccccc2-c2[nH]nc(-c3ccccc3)c21` (stereo not drawn), the melting point fell in the range of 154 to 155 °C.
Next, `CN1CCCCC(C2=CC(=O)CCC2)C1=O` (stereo not drawn): 109 to 110 °C.
Next, `NS(=O)c1ncnc2c1ncn2C1OC(CO)C(O)C1O` (stereo not drawn): more than 120 °C.
Turning to `CNC(=O)Oc1cc(C)c(NC(=O)C(F)(F)Cl)c(C)c1`, the melting point fell in the range of 163 to 165 °C.
As to `Cc1ccc(OC2CN(S(=O)(=O)c3ccc(C)cc3)CCc3ccccc32)cc1` (stereo not drawn), the melting point was in the range of 84 to 86 °C.
`CC(C)c1cc(O)cc2nc(-c3ccc(O)cc3)oc12`: the melting point is 200 °C.
Take `CC1=C([N+](=O)[O-])C(c2cccc(Cl)c2Cl)c2c[nH]nc2N1` (stereo not drawn): the melting point was more than 270 °C.
`COc1ccc2c(c1)c(Cc1cc(=O)n(-c3cc(C)cc(C)c3)[nH]1)c(C)n2C(=O)c1ccc(Cl)cc1` registered a melting point of 77.5 to 79 °C.
Next, `CSC(Oc1cc(C)c2ncc(I)cc2c1)C(=O)NC(C)(C#N)CF` (stereo not drawn): 70 to 79 °C.
For `Cn1cc(C(=O)c2ccccc2)c2c(Nc3cccc(N)c3)ncnc21`, the melting point was in the range of 170 to 173 °C.
Next, `CN(C)C(=O)c1c([N+](=O)[O-])cccc1S(=O)(=O)N(C)CCO`: 107 °C; `O=C1N(Cc2ccccn2)c2c(F)cccc2C12COc1cc3c(cc12)OCCO3` (stereo not drawn): 205 to 207 °C; `COc1cc(OC)c2c(=O)[nH]c(-c3ccc(O)cc3)cc2c1`: 245 to 247 °C.
Take `CC1(C)Oc2ccc(Br)cc2C(n2ccccc2=O)=C1CN(O)C(N)=S`: the melting point is 219 °C.
Regarding `OCCC(c1ccccc1)C(O)(c1ccccc1)c1ccc(O)cc1` (stereo not drawn), the melting point was in the range of 192 to 194 °C.
Next, `O=C(Oc1ccccc1)N1CCC2(CC1)SC(c1ccccc1)c1ccc(F)cc12` (stereo not drawn): 156 to 158 °C; `CC(C)(O)c1ccc(CCl)cc1`: 101 to 103 °C.
Take `COc1cc(COc2cccc3c2CN(C2CCC(=O)NC2=O)C3=O)ccc1OCCN1CCCC1` (stereo not drawn): the melting point fell in the range of 160 to 162 °C.
The compound `CCC(CC)N(Cc1ccc(C#N)cc1)S(=O)(=O)c1ccc(Cl)cc1` had a melting point of 123 to 125 °C.
`NC(=O)c1cccc(C2(O)C3CCC2CN(Cc2ccccc2)C3)c1` (stereo not drawn) returned a melting point of 210 to 214 °C.
As to `Sc1nc(CCCC2CCCCC2)c[nH]1`, the melting point is 176 to 177 °C.
Consider `CCCCCCCCCCCOCCCN=C=O`, for which the melting point was in the range of 72 to 78 °C.
`COC(=O)c1ccc2c(c1)ncn2N`: the melting point was 194 to 195 °C.
Compound `CNC(=O)c1[nH]c(C)c2c1CN=C(c1ccccc1F)c1cc(Cl)ccc1-2` gave a melting point of 252 to 255 °C.
For the compound `O=C(O)c1ccc2c(c1)S(=O)(=O)c1ccccc1C(=O)N2`, the melting point was in the range of 337 to 340 °C.
In turn, `CN1CCC(c2c[nH]c3ccc(NC(=O)c4ccc(Cl)cc4Cl)nc23)CC1` showed a melting point of 151 to 152 °C.
For the compound `NC(=O)C1CCN(c2ncncc2Cl)CC1`, the melting point lay within 201 to 202 °C.
As for `CCCN(CCC)CCOc1ccc(Cn2c(-c3ccc(O)cc3)c(C)c3cc(O)ccc32)cc1`, the melting point was 83 to 86 °C.
`CCCCCc1c(C(C)C)nc(C(C)C)c(CO)c1-c1ccc(Cl)cc1` gave a melting point of 83 to 85 °C.
On to `Nc1cccc2c1OCC2`, for which the melting point fell in the range of 70 to 72 °C.
Regarding `COc1cc(C(=O)O)ccc1Cc1cn(C)c2ccc(NC(=O)NC3CCCC3)cc12`, the melting point lay within 203 to 206 °C.
In the case of `Nc1ncccc1OCc1c(F)cccc1Cl`, the melting point lay in the range of 123 to 130 °C.
Regarding `CC1(C)CN=C2C(=O)c3cc(S(=O)(=O)N4CCCC4)ccc3N2C1`, the melting point is 200 to 201 °C.
The compound `c1ccc2c(c1)c1ccccc1n2-c1ccc(-n2ccnc2-c2nccn2-c2ccc(-n3c4ccccc4c4ccccc43)cc2)cc1` displayed a melting point of 270 to 274 °C.
The compound `Cc1cc(O)c(SCC(C)C)c(=O)o1` came in with a melting point of 106 to 108 °C.
As for `CC(C)Cn1c(CCl)c(-c2ccccc2)c2cc(Br)ccc2c1=O`, the melting point was in the range of 145 to 146 °C.
As for `Oc1ccc(C2COC(c3c(F)cccc3F)=N2)cc1` (stereo not drawn), the melting point fell in the range of 145 to 147 °C.
On to `CCOC(=O)n1c(SCc2nccc(SCCN3CCOCC3)c2C)nc2ccccc21`, for which the melting point is 145 to 147 °C.
Compound `COc1cc2c(cc1OC)C(C(C)C)C(=O)CC2` (stereo not drawn) yielded a melting point of 77 to 79 °C.
In the case of `Oc1ccc(-c2nc3ccccc3s2)cc1`, the melting point was 108 to 109 °C.
For `CCOC(=O)c1cnc2c(SCc3ccccc3)cccn2c1=O`, the melting point fell in the range of 165 to 167 °C.
Next, `Clc1ccc(-c2ccc(C(Cl)Cn3cncn3)cc2)cc1` (stereo not drawn): 118 °C.
Regarding `CC(=O)NC(C)c1ccc(CN2CCN(c3ccc(F)cc3)CC2)cc1` (stereo not drawn), the melting point lay within 101 to 103 °C.
On to `NC(=O)Cn1ccc2ccccc21`, for which the melting point was 177 to 179 °C.
For `Cc1ncccc1CN1CCC(=C2c3ccc(Cl)cc3CCc3cccnc32)CC1`, the melting point fell in the range of 81.4 to 87.2 °C.
Compound `N#CC(N)c1ccc(F)cc1` (stereo not drawn) yielded a melting point of 77.9 °C.
`c1ccc2c(c1)NCc1cccn1-2` returned a melting point of 108 to 110 °C.
As for `Cc1ccc(Sc2ncnc3c(C)csc23)cc1`, the melting point lay within 103 to 107 °C.
For `CN(C)CCNc1ccc(C=O)c2sc3ccc(O)cc3c(=O)c12`, the melting point fell in the range of 219 to 220 °C.
`CCOC(=O)Cc1ccc2c(c1)C(=O)c1ccccc1CS2` showed a melting point of 98 to 100 °C.
Take `CC(C)N(CCN1C(=O)/C(=N/NC(N)=O)c2ccccc21)C(C)C`: the melting point fell in the range of 189 to 191 °C.
The compound `CC(C)n1nc(-c2cc(C#N)c(Cl)nc2-c2ccccc2)ccc1=O` yielded a melting point of 191 to 192 °C.
Turning to `CC1(C)CCC(C)(C)c2cc3sc(-c4ccc(C(=O)O)cc4)cc3cc21`, the melting point was in the range of 291 to 292 °C.
Regarding `CC1CC(=O)NN=C1c1ccc(C(=O)OC2CCCC2)cc1` (stereo not drawn), the melting point is 120 to 122 °C.
Next, `O=C1Cc2cccc(Oc3cccc(Cl)c3)c2O1`: 105 to 106 °C.
`CCCc1nn(-c2ccc(C(F)(F)F)cn2)cc1CCCOc1c(CC(=O)O)cnn1C` yielded a melting point of 136 to 138 °C.
Compound `CSC(=O)C(=O)c1nsc(NC=O)n1` yielded a melting point of 186 to 187 °C.
Next, `CCOC(=O)CC(NC(=O)c1ccccc1)C(=O)c1ccco1` (stereo not drawn): 75 to 76 °C; `Cc1cc(C(F)(C(F)(F)F)C(F)(F)F)ccc1NC1OC(=O)c2cccc(Cl)c21` (stereo not drawn): 229 to 231 °C.
Next, `Cc1cc(C)cc(NC(=O)Cc2ccc(OC3(C(=O)N[C@@H](C)C(=O)O)CCCC3)cc2)c1`: 90 to 91 °C.
In turn, `COC1CN2[C@H]3CC[C@@H]2[C@@H]1[C@@H](c1ccc(Cl)c(Cl)c1)C3` (stereo partly drawn) displayed a melting point of 139 to 141 °C.
On to `CCc1c(CCN2CCC(c3noc4cc(F)ccc34)CC2)sc2c1NC(=O)CCC2`, for which the melting point was 115 to 117 °C.
In turn, `O=C(O)CCC(=O)c1ccc(-c2ccc(Cl)s2)cc1` displayed a melting point of 212 to 213 °C.
Turning to `COC(=O)C1=C(C)NC(C)=C(C(=O)OCC=Cc2ccccc2)C1c1cccc([N+](=O)[O-])c1` (stereo not drawn), the melting point is 143 to 144 °C.
Compound `CC(=S)c1cncn1C(c1ccccc1)c1ccccc1` registered a melting point of 98 °C.
`COc1cccc2c1C(c1ccccc1Cl)NC(=O)C2` (stereo not drawn) had a melting point of 230 to 233 °C.
In the case of `C#CCN1CCCc2ccc(OC(=O)NCCCCCCC)cc21`, the melting point was determined as 54 °C.
Next, `CCCCCCCCCC(=O)Oc1ccc([N+](=O)[O-])cc1OC(=O)CCCCCCCCC`: 45 to 47 °C.
The compound `Cc1ccc(C(=O)Nc2ccc(CN3CCOCC3)c(C(F)(F)F)c2)cc1-c1ccc2cnncc2c1` registered a melting point of 147 to 151 °C.
Next, `COC(=O)CNc1ccc(OCc2ccccc2)cc1`: 106 to 107 °C.
In turn, `COc1ccc(C#N)cc1C=O` displayed a melting point of 115 to 118 °C.
`CSc1nc(C#N)c(C#N)nc1SC` had a melting point of 139 to 142 °C.
On to `COC(=O)c1ccc(NCc2cc(S(C)(=O)=O)ccc2OCc2ccccc2)cc1`, for which the melting point turned out to be 124 °C.
